pIC50: −log10 of the molar value.
Target: T1, E1 (ubiquitin-activating enzyme) (Homo sapiens, UniProt P22314)
T1 sequence (P22314 2-1058): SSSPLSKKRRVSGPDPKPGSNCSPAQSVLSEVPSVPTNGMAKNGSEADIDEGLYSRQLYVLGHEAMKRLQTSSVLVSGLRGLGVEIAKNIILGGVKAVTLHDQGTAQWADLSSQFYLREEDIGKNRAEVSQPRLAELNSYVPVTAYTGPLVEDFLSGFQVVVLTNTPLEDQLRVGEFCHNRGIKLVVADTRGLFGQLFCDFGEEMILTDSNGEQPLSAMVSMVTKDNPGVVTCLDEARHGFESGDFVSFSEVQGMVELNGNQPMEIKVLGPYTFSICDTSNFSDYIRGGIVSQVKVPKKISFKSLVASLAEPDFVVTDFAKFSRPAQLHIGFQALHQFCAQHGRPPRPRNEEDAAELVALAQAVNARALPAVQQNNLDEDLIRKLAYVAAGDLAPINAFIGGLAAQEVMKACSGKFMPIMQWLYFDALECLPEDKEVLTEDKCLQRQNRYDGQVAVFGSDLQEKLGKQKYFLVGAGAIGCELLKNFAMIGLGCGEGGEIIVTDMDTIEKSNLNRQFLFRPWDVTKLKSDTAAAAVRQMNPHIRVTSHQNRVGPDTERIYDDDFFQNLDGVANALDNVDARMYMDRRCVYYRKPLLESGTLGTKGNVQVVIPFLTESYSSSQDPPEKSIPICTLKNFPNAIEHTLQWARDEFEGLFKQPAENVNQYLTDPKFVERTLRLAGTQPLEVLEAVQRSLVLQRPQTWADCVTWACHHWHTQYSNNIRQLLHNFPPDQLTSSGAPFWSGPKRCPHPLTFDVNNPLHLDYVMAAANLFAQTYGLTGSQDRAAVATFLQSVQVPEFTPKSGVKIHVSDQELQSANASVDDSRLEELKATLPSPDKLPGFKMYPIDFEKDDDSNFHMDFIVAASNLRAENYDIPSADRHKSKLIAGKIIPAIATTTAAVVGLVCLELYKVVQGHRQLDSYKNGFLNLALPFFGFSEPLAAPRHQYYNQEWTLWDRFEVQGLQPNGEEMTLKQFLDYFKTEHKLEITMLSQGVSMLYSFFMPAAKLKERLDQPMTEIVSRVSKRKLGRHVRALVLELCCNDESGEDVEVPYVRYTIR
Experiment: ubiquitin~E1 thioester immunoblot
Type: cell-based

CCOC(=O)N1CCN(/[N+]([O-])=N/Oc2ccc([N+](=O)[O-])cc2[N+](=O)[O-])CC1 [JS-K, O^2-(2,4-dinitrophenyl) 1-[(4-ethoxycarbonyl)piperazin-1-yl]diazen-1-ium-1,2-diolate]
pIC50: ~5.70

From paper PMC2854646 (Oncogene, 2008)
